Consider 1 compound from patent US20040029172A1, “Generation of combinatorial libraries and assessment thereof by deconvolution” (priority 2000, published 2004).

The target of this assay is Concanavalin A (Canavalia ensiformis, UniProt P02866). To be noted: FIG. 5; complete library 2:1-6 and 2:A-I.

Method: Concanavalin A and all reagents were obtained from common commercial sources (Lancaster, Fluka, Aldrich, Bachem, Sigma). […] The binding effect of the equilibrated mixtures was determined using competitive inhibition of enzyme-labelled concanavalin A, and were carried out using a Victor microtiter plate reader.
The complete library (CL) was designed to contain near equal amounts of each final species at a concentration of approximately 12 μM. The final solution contained 2.5 mM of each carbohydrate aldehyde (2:1-6), and varying amounts of hydrazides: 2:A, 70 μM; 2:B-E, 0.24 mM; 2:F, 0.42 mM; 2:G, 0.65 mM; 2:H, 0.88 mM; 2:I, 2.5 mM. The mixture was made in ammonium formate buffer at pH 4.0, and was equilibrated at ambient temperature for one week to ensure full reaction.
The different sublibraries (SL1-SLI) were prepared under identical conditions, where one component (2:1-6, 2:A-I) was removed from the mixture each time. Aliquots of the solution were subsequently taken out to test the inhibitory activity on Concanavalin A.

For `O=Cc1ccc(OC2OC(CO)C(O)C(O)C2O)cc1` (stereo not shown) [2:6], the “effect on Con A binding when the component is removed from the complete library” value is reported as “largest effects”.
